In ChEMBL document CHEMBL1133993, “Chemical synthesis of UDP-beta-L-arabinofuranose and its turnover to UDP-beta-L-arabinopyranose by UDP-galactopyranose mutase” (Bioorg Med Chem Lett, 2001) one finds Km and k cat data, which are given here for two compounds.

The test system of this assay is Escherichia coli. Nature of the assay: Kinetic constant using the compound as substrate was determined against Escherichia coli UDP-galactopyranose mutase.

For the compound `O=c1ccn([C@@H]2O[C@H](COP(=O)(O)OP(=O)(O)O[C@H]3O[C@@H](CO)[C@H](O)[C@H]3O)[C@@H](O)[C@H]2O)c(=O)[nH]1`, the Km amounted to 600 µM and the k cat is 12 s⁻¹.

Regarding `O=c1ccn(C2O[C@H](COP(=O)(O)OP(=O)(O)OC3O[C@H]([C@H](O)CO)[C@H](O)[C@H]3O)[C@@H](O)[C@H]2O)c(=O)[nH]1` (some centres undefined), the Michaelis constant (Km) was determined as 22 µM and the k cat was 27 s⁻¹.
